Measured values: article PMC10194981, “Chemosensory protein regulates the behavioural response of Frankliniella intonsa and Frankliniella occidentalis to tomato zonate spot virus–Infected pepper (Capsicum annuum)” (PLOS Pathogens, 2023)

Experiments:
[1] = tested on: OBP5 from Apolygus lucorum; design: method as in PMID 23665333; conditions: cited from earlier work
[2] = target: FintCSP1-Ser84Ala (Frankliniella intonsa, UniProt A0A891LVF4, S84A); experiment: Fluorescence (1-NPN) binding and competitive binding assay, FintCSP1 mutant
Procedure: (§1) The binding affinity of FintCSP1 and FoccCSP to the fluorescent probe N-phenyl-1-naphthylamine (1-NPN) was tested using a Spectramax M2 fluorescence spectrometer (Molecular Devices, USA) as reported previously. Volatile compounds and 1-NPN were first dissolved to a concentration of 1 mM in HPLC-grade methanol and dissolved to their indicated final concentration (2–20 μM) to titrate 2 μM protein solutions resuspended in 50 mM Tris-HCl (pH 7.4). The 1-NPN/FintCSP1 or 1-NPN/FoccCSP mixture was excited at 280 nm, and the emission spectra were recorded at 415 nm. The binding constants (Kd) of FintCSP1 or FoccCSP to 1-NPN were calculated by Scatchard analysis using Prism 5 software (GraphPad, La Jolla, CA, USA). Assuming a protein activity of 100% and that the volatile compound binds to the protein in a 1:1 ratio at saturation, the dissociation constants (Ki) of FintCSP1 or FoccCSP for each ligand were calculated according to the IC50 (the concentration when the ligand replaces 50% of the probe) value of the volatile compounds. The Ki values were calculated according to the following equation: Ki = [IC50]/(1 + [1-NPN]/K1-NPN), where [1-NPN] is the free concentration of 1-NPN, and K1-NPN is the Kd of the 1-NPN/FintCSP1 or 1-NPN/FoccCSP.
To verify the key amino acids of FintCSP1 and FoccCSP that bind to cis-3-hexenal, six amino acid residues of FintCSP1 were mutated (Lys26Ala, Phe27Ala, Thr28Ala, Glu67Ala, Ser84Ala, and the negative control residue Val132Ala) and nine amino acid residues of FoccCSP were mutated (Lys26Ala, Phe27Ala, Thr28Ala, Thr29Ala, Tyr31Ala, Asp64Ala, Glu67Ala, Gln87Ala, and the negative control residue Val132Ala) with the Fast Mutagenesis System Kit (Transgen Biotech, Beijing, China) using the pET-30a/FintCSP1 and pET-30a/FoccCSP plasmid DNA as template, respectively. […] After validation by sequencing, each recombinant variant protein was produced and purified as described above, and their binding affinity to cis-3-hexenal was measured as described above.

[3] = target: FintCSP1-Thr28Ala (Frankliniella intonsa, UniProt A0A891LVF4, T28A); experiment: as above
Procedure: as §1, with “Volatile compounds and 1-NPN were first dissolved to a concentration of 1 mM in HPLC-grade methanol and dissolved to their indicated final concentration (2–20 μM) to titrate 2 μM protein solutions resuspended in 50 mM Tris-HCl (pH 7.4).” left out
To verify the key amino acids of FintCSP1 and FoccCSP that bind to cis-3-hexenal, six amino acid residues of FintCSP1 were mutated (Lys26Ala, Phe27Ala, Thr28Ala, Glu67Ala, Ser84Ala, and the negative control residue Val132Ala) and nine amino acid residues of FoccCSP were mutated (Lys26Ala, Phe27Ala, Thr28Ala, Thr29Ala, Tyr31Ala, Asp64Ala, Glu67Ala, Gln87Ala, and the negative control residue Val132Ala) with the Fast Mutagenesis System Kit (Transgen Biotech, Beijing, China) using the pET-30a/FintCSP1 and pET-30a/FoccCSP plasmid DNA as template, respectively. Specific primers were designed using Primer Premier 5.0 according to the instructions of the Fast Mutagenesis System Kit (S1 Table). After validation by sequencing, each recombinant variant protein was produced and purified as described above, and their binding affinity to cis-3-hexenal was measured as described above.

[4] = tested on: F. intonsa; experiment: Y-tube olfactometer preference test; type: in vivo, Frankliniella intonsa
Procedure: F. intonsa and F. occidentalis preference tests of plant volatile cues were performed using a glass Y-tube olfactometer according to the method described by Wang et al. (2014) with minor modifications. A Y-shaped tube (1-cm inner diameter) consisted of a central tube (10 cm in length) and two arms (10 cm in length, offset by 60°) connected to two different glass odor bottles. One glass odor bottle was 50 cm in height, with a 10-cm inner diameter that contained pepper plants (14-day post-viral infection); the other glass odor bottle was 5 cm in height, with a 3-cm inner diameter for plant VOCs. The airflow in the olfactometer (200 mL/min) was filtered through activated carbon and calibrated using a flow meter at the end of each arm. To remove all visual cues, the Y-tube was positioned horizontally in a black airtight cubic box (90 cm × 60 cm × 40 cm). The tested odor sources (pepper plant VOCs) were enclosed in the odor bottles 5 min prior to each test to allow the odors to fill the arms. Thrips (2-day-old, starved for 1 h) were individually placed in the central tube and allowed to choose between the two arms. When the thrips had climbed over 2/3 of the side arm and stayed there for more than 30 s, it was considered to have made a selection. If the thrips had not made a choice after being placed in the straight arm for 5 min, the insect behaviour was scored as “no selection,” and it was not counted in the total data. The direction of the Y-tube arms and the silicone tubes were adjusted after five tested thrips to eliminate the influence of position. The Y-tube was replaced after 10 tested thrips to eliminate the possible influence of existing odors on thrips behaviour. Each treatment consisted of 20 thrips, with three replicates per treatment.
The FintCSP1, FintCSP2, FintOBP, FintOR, FoccCSP, and enhanced green fluorescent protein (EGFP) coding sequences were obtained from GenBank under accession numbers MT199111, MT211602, OK067245, MT211603, AEP27186.1, and U55761.1, respectively. Primers were designed using Primer Premier 5.0, and the T7 promoter sequence (5′-[…]-3′) was added to the 5′ end of each primer (S1 Table). DNA fragments containing T7 promoter sequences were amplified by PCR using pEASY-T1/target gene or pUC-EGFP (preserved in the laboratory) plasmid DNA as template. Then, a double-stranded RNA (dsRNA) was produced from each target gene using the HiScribe T7 Quick High Yield RNA Synthesis Kit (New England Biolabs) according to the manufacturer’s instructions. […]

Chain of FintCSP1-Ser84Ala (A0A891LVF4 entry or part of it S84A): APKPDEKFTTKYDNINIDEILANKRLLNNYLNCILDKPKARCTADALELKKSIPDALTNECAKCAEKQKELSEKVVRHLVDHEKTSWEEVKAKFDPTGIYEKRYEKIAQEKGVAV
Chain of FintCSP1-Thr28Ala (A0A891LVF4 entry or part of it T28A): as the sequence (A0A891LVF4 entry or part of it S84A) above, with T9A, A65S counted along it

## CC/C=C\CC=O [cis-3-hexenal]
[1]
  binding to OBP5 (in words): strongly binds
[2]
  IC50: 41.3 ± 3.96 µM
  Ki: 29.7 ± 2.84 µM
[3]
  IC50: > 100 µM
[3]; FintCSP1-Thr28Ala, competitive fluorescent assay
  affinity for cis-3-hexenal (in words): no affinity
[4]; dsEGFP-treated F. intonsa, vs liquid paraffin control
  individuals that recognized the compound: 73.3%
[4]; dsFintCSP1-injected F. intonsa, vs liquid paraffin control
  preference of FintCSP1-silenced thrips (in words): no preference
[4]; volatile compound vs liquid paraffin control, n = 60
  preference of F. intonsa in Y-tube olfactometer (in words): reached statistical significance
